In article PMC9145754, “Novel Soloxolone Amides as Potent Anti-Glioblastoma Candidates: Design, Synthesis, In Silico Analysis and Biological Activities In Vitro and In Vivo” (Pharmaceuticals, 2022):
Where two headings read alike, the source gives them in different places.

What was measured:
U87 cells = experiment: MTT cytotoxicity assay, U87; assay type: cell-based; details: Homo sapiens, U-87 MG, 24 h, read-out: IC50, Glioblastoma, U87
Procedure: (§1) To evaluate the antitumor activity of the synthesized soloxolone amides in brain tumor cells, the cytotoxicity of compounds 4–12, predicted as BBB-permeable (Figure 3), was further analyzed in human glioblastoma U87 and U118 cells, as well as human neuroblastoma KELLY and murine neuroblastoma Neuro2a cells.
(§2) The cells in the exponential growth phase were seeded in quadruplicate in 96-well plates at a density of 1 × 10^4 cells/well for HeLa, U87, U118, KELLY and Neuro2a cells; 1.5 × 10^4 cells/well for HuTu-80 cells; 2 × 10^4 cells/well for B16 cells; and 7 × 10^3 cells/well for hFF3 fibroblasts. Cells were incubated under standard conditions overnight followed by their treatment with the investigated compounds (1–20 µM) for 24 h. Then, 10 µL of MTT solution was added to the cells to a final concentration of 0.5 mg/mL and plates were placed under standard conditions for 3 h followed by an aspiration of MTT-containing medium and a dissolution of formazan crystals with 100 µL of DMSO. The absorbance of each well was read at test and reference wavelengths of 570 and 620 nm, respectively, on a Multiscan RC plate reader (Thermo LabSystems, Helsinki, Finland).

HeLa cells = experiment: MTT cytotoxicity assay, HeLa; assay type: cell-based; details: Homo sapiens, 24 h, read-out: IC50, Cervix, HeLa
Procedure: (§3) In the first step of the study, we analyzed the cytotoxicity of novel soloxolone derivatives 1–12 in a panel of tumor cells, including human cervical carcinoma HeLa, human duodenal carcinoma HuTu-80 and murine melanoma B16 cells, as well as human non-transformed hFF3 foreskin fibroblasts. The cells were treated with derivatives for 24 h and cell viability was evaluated by 3-(4,5-dimethylthiazol-2-yl)-2,5-diphenyltetrazolium bromide (MTT) assay. SM was used as the reference compound.
as §2

[1] = system: hFF3 foreskin fibroblasts; experiment: MTT cytotoxicity assay, hFF3 fibroblasts; assay type: cell-based, human
Procedure: as §3, §2

KELLY cells = experiment: MTT cytotoxicity assay, KELLY; assay type: cell-based; details: Homo sapiens, 24 h, read-out: IC50, Neuroblastoma, KELLY
Procedure: as §1, §2

U118 cells = experiment: MTT cytotoxicity assay, U118; assay type: cell-based; details: Homo sapiens, 24 h, read-out: IC50, Glioblastoma, U118
Procedure: as §1, §2

B16 cells = experiment: MTT cytotoxicity assay, B16; assay type: cell-based, murine; details: Mus musculus, 24 h, read-out: IC50, Melanoma, B16
Procedure: as §3, §2

Neuro2a cells = experiment: MTT cytotoxicity assay, Neuro2a; assay type: cell-based, murine; details: Mus musculus, N2a, 24 h, read-out: IC50, Neuroblastoma, Neuro2a
Procedure: as §1, §2

HuTu-80 cells = experiment: MTT cytotoxicity assay, HuTu-80; assay type: cell-based; details: Homo sapiens, HuTu80, 24 h, read-out: IC50, Duodenum, HuTu-80
Procedure: as §3, §2

panel of tumor cells = experiment: MTT cytotoxicity, values averaged over the cell panel; assay type: cell-based
Procedure: as §3, §2

brain tumor cells = experiment: MTT cytotoxicity, values summarised over brain tumor cells; assay type: cell-based; details: U87, U118, KELLY, Neuro2a; MTT 24 h; read-out: IC50 (median), brain tumor cells
Procedure: as §1, §2

[2] = average over Table 1 cell lines (worded 'in a panel of tumor cells'), MTT 24 h, read-out: average IC50
[3] = aryl-containing amides versus SM, tumor cells of Table 1, MTT 24 h, read-out: average IC50 against tumor cells

melting point | Structure (SMILES) | IC50 (U87 cells) | IC50 (HeLa cells) | IC50 ([1]; 24 h) | IC50 ([1]; Homo sapiens, HFF-3, 24 h) | IC50 (KELLY cells) | IC50 (U118 cells) | IC50 (B16 cells) | IC50 (Neuro2a cells) | IC50 (HuTu-80 cells) | IC50 (panel of tumor cells; [2]) | IC50 (panel of tumor cells; [3]) | IC50 (brain tumor cells) | IC50 (panel of tumor cells; conclusions, soloxolone amides versus SM, read-out: average IC50 in a panel of tumor cell lines)
115.9 °C (dec.) | COCCNC(=O)[C@@]1(C)CC[C@]2(C)CC[C@]3(C)[C@H](C(=O)C=C4[C@@]5(C)C=C(C#N)C(=O)C(C)(C)C5CC[C@]43C)[C@@H]2C1 (stereo partly shown) [compound 5, N-(2′-Methoxyethyl)-2-cyano-3,12-dioxo-18βH-olean-9(11),1(2)-dien-30-amide] | 5500 ± 1100 nM | 1500 ± 200 nM | 12.9 ± 0.8 µM | 12.8 µM | 1600 ± 100 nM | 7000 ± 700 nM | 1600 ± 100 nM | 2700 ± 300 nM | 2300 ± 200 nM |  |  |  | 
152.7 °C (dec.) | CC1(C)C(=O)C(C#N)=C[C@]2(C)C3=CC(=O)[C@@H]4[C@@H]5C[C@@](C)(C(=O)NCCO)CC[C@]5(C)CC[C@@]4(C)[C@]3(C)CCC12 (stereo partly shown) [compound 2, N-(2′-Hydroxyethyl)-2-cyano-3,12-dioxo-18βH-olean-9(11),1(2)-dien-30-amide] |  | 1500 ± 100 nM |  | 1.2 ± 0.1 µM |  |  | 3300 ± 200 nM |  | 1400 ± 100 nM | 1900 nM |  |  | 
250 °C | CC1(C)C(=O)C(C#N)=C[C@]2(C)C3=CC(=O)[C@@H]4[C@@H]5C[C@@](C)(C(=O)Nc6cccnc6)CC[C@]5(C)CC[C@@]4(C)[C@]3(C)CCC12 (stereo partly shown) [compound 10, N-(Pyridin-3-yl)-2-Cyano-3,12-dioxo-18βH-olean-9(11),1(2)-dien-30-amide] | 2500 ± 200 nM | 1800 ± 100 nM |  | 1.6 ± 0.1 µM | 1500 ± 100 nM | 2100 ± 200 nM | 1700 ± 100 nM | 1400 ± 100 nM | 1500 ± 200 nM |  | 1500 to 1800 nM |  | 
115.7 °C (dec.) | CC1(C)C(=O)C(C#N)=C[C@]2(C)C3=CC(=O)[C@@H]4[C@@H]5C[C@@](C)(C(=O)NCCCCCO)CC[C@]5(C)CC[C@@]4(C)[C@]3(C)CCC12 (stereo partly shown) [compound 4, N-(5′-Hydroxypentyl)-2-cyano-3,12-dioxo-18βH-olean-9(11),1(2)-dien-30-amide] | 2000 ± 100 nM | 2300 ± 400 nM |  | 3.6 ± 0.3 µM | 1500 ± 100 nM | 3100 ± 500 nM | 1500 ± 100 nM | 1900 ± 200 nM | 1300 ± 100 nM | 2200 nM |  |  | 
139 °C (dec.) | CC(C)(C)c1cc(CCCNC(=O)[C@@]2(C)CC[C@]3(C)CC[C@]4(C)[C@H](C(=O)C=C5[C@@]6(C)C=C(C#N)C(=O)C(C)(C)C6CC[C@]54C)[C@@H]3C2)cc(C(C)(C)C)c1O (stereo partly shown) [compound 11, N-(3′-(3′’,5′’-di-tert-butyl-4′’-hydroxyphenyl)propyl)-2-Cyano-3,12-dioxo-18βH-olean-9(11),1(2)-dien-30-amide] | 1500 ± 100 nM | 2500 ± 100 nM |  | 1.3 ± 0.2 µM | 1800 ± 200 nM | 1900 ± 100 nM | 1400 ± 100 nM | 1400 ± 100 nM | 1500 ± 100 nM |  | 1500 to 1800 nM |  | 
 | CC1(C)C(=O)C(C#N)=C[C@]2(C)C3=CC(=O)[C@@H]4[C@@H]5C[C@@](C)(C(=O)O)CC[C@]5(C)CC[C@@]4(C)[C@]3(C)CCC12 (stereo partly shown) [compound 1, 2-Cyano-3,12-dioxo-18βH-olean-9(11),1(2)-dien-30-oic acid] |  | 9900 ± 700 nM |  | 16 ± 1.9 µM |  |  | 4200 ± 300 nM |  | 2500 ± 300 nM | 8200 nM |  |  | 
 | COC(=O)[C@@]1(C)CC[C@]2(C)CC[C@]3(C)[C@H](C(=O)C=C4[C@@]5(C)C=C(C#N)C(=O)C(C)(C)C5CC[C@]43C)[C@@H]2C1 (stereo partly shown) [SM, soloxolone methyl, reference compound] | 1800 ± 100 nM | 1300 ± 100 nM |  | 4 ± 0.4 µM | 1600 ± 100 nM | 1900 ± 100 nM | 1600 ± 100 nM | 1400 ± 100 nM | 1500 ± 100 nM | 2100 nM | 1500 nM | 1400 nM | 1600 nM
 | CN(C)CCCNC(=O)[C@@]1(C)CC[C@]2(C)CC[C@]3(C)[C@H](C(=O)C=C4[C@@]5(C)C=C(C#N)C(=O)C(C)(C)C5CC[C@]43C)[C@@H]2C1 (stereo partly shown) [compound 7, N-(3′-(Dimethylamino)propyl)-2-cyano-3,12-dioxo-18βH-olean-9(11),1(2)-dien-30-amide] | 5300 ± 700 nM | 4900 ± 800 nM |  | 7.7 ± 1.1 µM | 1800 ± 300 nM | 5200 ± 1300 nM | 3300 ± 800 nM | 3700 ± 600 nM | 2000 ± 700 nM | 4500 nM |  |  | 
150.8 °C (dec.) | CC1(C)C(=O)C(C#N)=C[C@]2(C)C3=CC(=O)[C@@H]4[C@@H]5C[C@@](C)(C(=O)NCCCO)CC[C@]5(C)CC[C@@]4(C)[C@]3(C)CCC12 (stereo partly shown) [compound 3, N-(3′-Hydroxypropyl)-2-cyano-3,12-dioxo-18βH-olean-9(11),1(2)-dien-30-amide] |  | 3500 ± 200 nM |  | 6.8 ± 1.3 µM |  |  | 1400 ± 100 nM |  | 1700 ± 200 nM | 3400 nM |  |  | 
 | CN(C)CCNC(=O)[C@@]1(C)CC[C@]2(C)CC[C@]3(C)[C@H](C(=O)C=C4[C@@]5(C)C=C(C#N)C(=O)C(C)(C)C5CC[C@]43C)[C@@H]2C1 (stereo partly shown) [compound 6, N-(2′-(Dimethylamino)ethyl)-2-Cyano-3,12-dioxo-18βH-olean-9(11),1(2)-dien-30-amide] | 4600 ± 400 nM | 2600 ± 500 nM |  | 4.1 ± 0.3 µM | 1600 ± 100 nM | 3800 ± 500 nM | 3300 ± 500 nM | 2800 ± 400 nM | 2100 ± 500 nM | 3000 nM |  |  | 
 | Cc1ccc(NC(=O)[C@@]2(C)CC[C@]3(C)CC[C@]4(C)[C@H](C(=O)C=C5[C@@]6(C)C=C(C#N)C(=O)C(C)(C)C6CC[C@]54C)[C@@H]3C2)cc1 (stereo partly shown) [compound 9, N-p-Tolyl-2-cyano-3,12-dioxo-18βH-olean-9(11),1(2)-dien-30-amide] | 2000 ± 200 nM | 1600 ± 100 nM |  | 3.6 ± 0.3 µM | 1400 ± 100 nM | 1900 ± 200 nM | 2100 ± 300 nM | 1600 ± 100 nM | 1500 ± 100 nM |  | 1500 to 1800 nM |  | 
283 °C (dec.) | CC1(C)C(=O)C(C#N)=C[C@]2(C)C3=CC(=O)[C@@H]4[C@@H]5C[C@@](C)(C(=O)Nc6ccc(Br)cc6)CC[C@]5(C)CC[C@@]4(C)[C@]3(C)CCC12 (stereo partly shown) [compound 8, N-(4′-Bromophenyl)-2-Cyano-3,12-dioxo-18βH-olean-9(11),1(2)-dien-30-amide] | 1700 ± 100 nM | 1500 ± 100 nM |  | 1.8 ± 0.1 µM | 1400 ± 100 nM | 2000 ± 100 nM | 1900 ± 100 nM | 1600 ± 100 nM | 1400 ± 100 nM |  | 1500 to 1800 nM |  | 
